Earlier results in patent US20250228808A1, “COMPOSITIONS AND METHODS FOR THE TREATMENT OF CORONAVIRUS DISEASES” (priority 2022, published 2025).

Tests used:
[1] = entry into the cell
[2] = Lu S C 2000
[3] = Sansone 2011

| SMILES | membrane permeability [1] | half-life in the blood [2] | fraction of dose excreted by the kidneys [3] |
| --- | --- | --- | --- |
| N[C@@H](CCC(=O)N[C@@H](CS)C(=O)NCC(=O)O)C(=O)O [GSH, glutathione] | membrane-impermeable | seconds to minutes | – |
| CC(=O)N[C@@H](CS)C(=O)O [NAC, N-acetyl cysteine] | – | – | one-third |
